Activity calls are given as the source filed them. Rule as the data show it, for most assays here: actives have a measured IC50 and inactives only a lower limit.
Assays:
[1] = HepG2 cell cytotoxicity, dose response, cytotoxicity control for Shn3 inhibitor project, CellTiter-Glo, cherry-picked (AID 624134); format: functional, cell-based
[2] = biological target: Low molecular weight phosphotyrosine protein phosphatase (Homo sapiens, UniProt P24666); format: functional; conditions: read-out: IC50_Mean;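 also: Dose-response confirmation assay measuring inhibition of LMPTP enzyme activity by fluorescence intensity read-out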
Sequence of Low molecular weight phosphotyrosine protein phosphatase (P24666 whole entry): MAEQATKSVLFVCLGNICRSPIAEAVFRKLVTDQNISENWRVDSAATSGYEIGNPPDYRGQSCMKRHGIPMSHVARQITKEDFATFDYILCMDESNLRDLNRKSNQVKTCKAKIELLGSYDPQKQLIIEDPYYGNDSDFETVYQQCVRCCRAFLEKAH

[3] = Shn3 3'UTR reporter inhibitors, dose response, cell-based, Clone20 osteoblasts, firefly luciferase, cherry-picked (AID 624132); format: functional;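 also: firefly luciferase luminescence from reporter carrying the Shn3 3'UTR in osteoblasts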
[4] = control 3'UTR Renilla luciferase suppression, dose response, counter-screen for Shn3 inhibitor project, cell-based, Clone20-Shn3RL, cherry-picked (AID 624133); format: functional
Caspase-3 [5] = biological target: T1, Caspase-3 (Homo sapiens, UniProt P42574); assay: SAR Analysis of small molecule inhibitors of Sentrin-specific proteases (SENPs) using a Caspase-3 Selectivity assay. [Related pubchem assays (depositor defined):AID2540, AID2599, AID434973, AID489001]; format: functional
T1 sequence (P42574 whole entry): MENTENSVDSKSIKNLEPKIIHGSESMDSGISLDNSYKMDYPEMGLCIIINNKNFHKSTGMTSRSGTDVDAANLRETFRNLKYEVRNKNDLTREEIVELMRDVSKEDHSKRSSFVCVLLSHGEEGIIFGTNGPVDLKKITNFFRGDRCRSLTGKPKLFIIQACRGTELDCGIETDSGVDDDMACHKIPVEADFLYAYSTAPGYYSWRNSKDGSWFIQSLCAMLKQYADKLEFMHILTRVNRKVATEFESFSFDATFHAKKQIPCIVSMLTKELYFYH

[6] = biological target: T2, Sentrin-specific protease 6 (Homo sapiens, UniProt Q9GZR1); assay: SAR Analysis of small molecule inhibitors of Sentrin-specific protease 6 (SENP6) using a Luminescent assay. [Related pubchem assays (depositor defined):AID2582, AID2599]; format: functional
T2 sequence (Q9GZR1 whole entry): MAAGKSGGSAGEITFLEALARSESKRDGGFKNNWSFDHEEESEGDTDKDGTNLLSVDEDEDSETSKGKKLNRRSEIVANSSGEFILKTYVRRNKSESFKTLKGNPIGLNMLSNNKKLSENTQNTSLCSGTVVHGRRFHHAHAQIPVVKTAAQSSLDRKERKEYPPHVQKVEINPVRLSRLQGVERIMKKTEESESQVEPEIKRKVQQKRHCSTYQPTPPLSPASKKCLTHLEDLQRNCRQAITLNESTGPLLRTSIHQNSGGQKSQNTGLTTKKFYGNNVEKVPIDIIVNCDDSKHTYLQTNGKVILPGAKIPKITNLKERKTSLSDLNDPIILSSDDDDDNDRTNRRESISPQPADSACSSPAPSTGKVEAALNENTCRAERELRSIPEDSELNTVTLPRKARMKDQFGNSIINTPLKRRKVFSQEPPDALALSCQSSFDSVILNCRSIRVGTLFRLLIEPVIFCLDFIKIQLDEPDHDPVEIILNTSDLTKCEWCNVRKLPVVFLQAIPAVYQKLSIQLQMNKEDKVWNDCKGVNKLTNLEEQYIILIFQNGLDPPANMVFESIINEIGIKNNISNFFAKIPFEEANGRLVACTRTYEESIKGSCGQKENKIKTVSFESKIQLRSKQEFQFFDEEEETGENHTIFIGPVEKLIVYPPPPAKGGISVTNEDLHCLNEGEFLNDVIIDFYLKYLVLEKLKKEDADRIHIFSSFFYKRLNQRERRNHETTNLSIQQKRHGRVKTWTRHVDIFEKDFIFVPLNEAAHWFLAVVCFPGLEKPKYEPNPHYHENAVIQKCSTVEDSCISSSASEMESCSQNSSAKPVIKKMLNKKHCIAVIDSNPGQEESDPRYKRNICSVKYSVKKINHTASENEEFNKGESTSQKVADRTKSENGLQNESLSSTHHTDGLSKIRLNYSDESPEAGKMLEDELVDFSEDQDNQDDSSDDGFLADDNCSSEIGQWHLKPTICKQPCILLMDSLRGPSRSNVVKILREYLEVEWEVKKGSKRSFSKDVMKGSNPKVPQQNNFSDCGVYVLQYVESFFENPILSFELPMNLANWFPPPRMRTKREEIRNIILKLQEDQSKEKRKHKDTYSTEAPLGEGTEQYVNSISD

[7] = biological target: T3, Sentrin-specific protease 8 (Homo sapiens, UniProt Q96LD8); assay: SENP8 protease inhibitors, SAR follow-up, biochemical, luminescence (AID 504501); format: functional
T3 sequence (Q96LD8 whole entry): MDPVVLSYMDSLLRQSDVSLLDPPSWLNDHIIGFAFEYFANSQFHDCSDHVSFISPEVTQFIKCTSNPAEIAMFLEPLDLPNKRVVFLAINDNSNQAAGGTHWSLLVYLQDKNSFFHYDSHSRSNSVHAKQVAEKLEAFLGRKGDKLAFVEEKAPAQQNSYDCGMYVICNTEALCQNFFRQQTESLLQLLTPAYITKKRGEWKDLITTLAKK

[8] = biological target: T4, Sentrin-specific protease 7 (Homo sapiens, UniProt Q9BQF6); assay: SENP7 protease inhibitors, SAR follow-up, biochemical, luminescence (AID 504497); format: functional
T4 sequence (Q9BQF6 whole entry): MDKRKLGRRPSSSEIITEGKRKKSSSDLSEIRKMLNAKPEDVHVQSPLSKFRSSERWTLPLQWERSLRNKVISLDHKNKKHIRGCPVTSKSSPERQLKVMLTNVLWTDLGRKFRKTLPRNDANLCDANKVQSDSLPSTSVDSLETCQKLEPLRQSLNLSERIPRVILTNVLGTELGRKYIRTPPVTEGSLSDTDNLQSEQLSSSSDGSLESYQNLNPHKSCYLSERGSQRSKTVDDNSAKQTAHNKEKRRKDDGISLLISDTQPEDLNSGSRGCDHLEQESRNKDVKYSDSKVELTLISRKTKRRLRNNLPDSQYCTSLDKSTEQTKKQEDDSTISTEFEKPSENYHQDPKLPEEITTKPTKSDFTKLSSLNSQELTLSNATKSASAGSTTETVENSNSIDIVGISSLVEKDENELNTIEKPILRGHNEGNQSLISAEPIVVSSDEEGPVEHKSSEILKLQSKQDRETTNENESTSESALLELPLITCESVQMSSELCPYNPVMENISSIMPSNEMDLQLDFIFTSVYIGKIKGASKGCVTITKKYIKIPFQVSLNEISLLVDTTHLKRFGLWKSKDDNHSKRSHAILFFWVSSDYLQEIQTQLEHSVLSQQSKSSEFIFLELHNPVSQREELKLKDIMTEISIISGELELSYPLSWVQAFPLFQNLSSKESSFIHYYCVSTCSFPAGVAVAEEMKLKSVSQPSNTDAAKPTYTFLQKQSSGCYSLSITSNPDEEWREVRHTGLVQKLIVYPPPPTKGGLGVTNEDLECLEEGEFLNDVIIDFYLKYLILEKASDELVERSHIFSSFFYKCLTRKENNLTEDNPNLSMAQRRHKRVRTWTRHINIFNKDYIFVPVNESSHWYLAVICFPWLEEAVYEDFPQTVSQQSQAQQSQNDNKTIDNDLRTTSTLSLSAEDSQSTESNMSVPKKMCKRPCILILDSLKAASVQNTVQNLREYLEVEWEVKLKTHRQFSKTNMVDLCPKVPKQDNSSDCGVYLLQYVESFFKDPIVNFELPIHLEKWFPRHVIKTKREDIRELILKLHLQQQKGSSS

[9] = biological target: Nuclear receptor subfamily 5 group A member 2 (Homo sapiens, UniProt O00482); format: functional, cell-based;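 also: HEK293T cells transfected with LRH-1 and a StAR promoter luciferase reporter; potency for inhibitors that lower LRH-1 driven reporter light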
Sequence of Nuclear receptor subfamily 5 group A member 2 (O00482 whole entry): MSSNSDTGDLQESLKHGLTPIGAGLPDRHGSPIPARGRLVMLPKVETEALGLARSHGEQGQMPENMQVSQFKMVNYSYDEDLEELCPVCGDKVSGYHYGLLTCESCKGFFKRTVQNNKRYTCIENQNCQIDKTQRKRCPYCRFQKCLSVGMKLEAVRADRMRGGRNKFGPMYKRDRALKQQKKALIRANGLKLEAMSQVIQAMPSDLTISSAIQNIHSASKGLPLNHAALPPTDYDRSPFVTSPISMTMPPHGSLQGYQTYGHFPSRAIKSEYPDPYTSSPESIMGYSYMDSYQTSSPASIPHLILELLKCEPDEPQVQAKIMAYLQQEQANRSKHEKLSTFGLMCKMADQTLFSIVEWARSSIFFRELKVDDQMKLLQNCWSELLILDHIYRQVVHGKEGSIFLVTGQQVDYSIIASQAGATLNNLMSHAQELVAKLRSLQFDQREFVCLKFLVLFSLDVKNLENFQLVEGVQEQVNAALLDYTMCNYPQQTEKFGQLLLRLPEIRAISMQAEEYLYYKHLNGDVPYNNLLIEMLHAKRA

[10] = StAR promoter reporter inhibition counter-screen, dose response, counter-screen for LRH-1 inverse agonist project, cell-based, luminescence, luciferase reporter (AID 651969); format: functional
Steroidogenic factor 1 = Steroidogenic factor 1 (Homo sapiens, UniProt Q13285); assay: Counterscreen for inverse agonists of the liver receptor homolog-1 (LRH-1; NR5A2): Luminescence-based cell-based high throughput dose response assay to identify inverse agonists of the Steroidogenic Factor 1 Nuclear Receptor (SF1; NR5A1).; format: functional
Sequence of Steroidogenic factor 1 (Q13285 whole entry): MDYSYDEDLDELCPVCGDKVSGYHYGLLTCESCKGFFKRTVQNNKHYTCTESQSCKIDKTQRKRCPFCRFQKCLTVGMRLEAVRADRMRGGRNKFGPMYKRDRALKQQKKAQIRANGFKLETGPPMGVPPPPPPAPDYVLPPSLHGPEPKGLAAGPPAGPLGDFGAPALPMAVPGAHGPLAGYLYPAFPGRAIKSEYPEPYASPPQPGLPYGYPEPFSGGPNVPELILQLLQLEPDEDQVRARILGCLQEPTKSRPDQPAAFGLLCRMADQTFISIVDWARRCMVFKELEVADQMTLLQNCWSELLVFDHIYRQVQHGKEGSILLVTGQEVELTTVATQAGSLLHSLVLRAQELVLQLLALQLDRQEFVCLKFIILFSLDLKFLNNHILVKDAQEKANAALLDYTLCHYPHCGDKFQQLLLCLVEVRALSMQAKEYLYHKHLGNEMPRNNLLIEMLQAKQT

Caspase-3 [11] = biological target: T1, Caspase-3; format: functional
[12] = biological target: T3, Sentrin-specific protease 8; format: functional
[13] = biological target: T2, Sentrin-specific protease 6; format: functional
[14] = biological target: T4, Sentrin-specific protease 7; format: functional

In the case of `COc1ccccc1CNc1nc(Nc2cccc(-c3cnco3)c2)c2sccc2n1`, the AC50 [1] is reported as 45.6 µM (active), the IC50 [2] is reported as 42.4 µM (inactive) and the AC50 [3] is reported as 5.61 µM (active). The AC50 [4] was 9.22 µM (active).

For `O=C(NN=c1c(=O)c2ccccc2c1=O)c1ccncc1`, the IC50 (Caspase-3 [5]) was 76.5 µM (active), the IC50 [6] was 9.3 µM (active) and the IC50 [7] was 33.3 µM (active). For the same compound, the IC50 [8] was 17.8 µM (active).

In the case of `O=C(COc1ccc(S(=O)(=O)N2CCCC2)cc1Cl)Nc1ccc2c(c1)OCO2`, the IC50 [9] is reported as 35.9 µM (inactive), the IC50 [10] is reported as 35.9 µM (inactive) and the IC50 (Steroidogenic factor 1) is reported as 9.54 µM (active).

With `CC(=O)Nc1ccc(-c2nc3cc(Cl)ccc3o2)cc1` the IC50 (Caspase-3 [11]) was 54.9 µM (active), the IC50 (Caspase-3 [5]) was 10.4 µM (active) and the IC50 [6] was > 99 µM (inactive). The IC50 [7] was > 99 µM (inactive), the IC50 [12] was > 100 µM (inactive) and the IC50 [13] was > 100 µM (inactive). The IC50 [8] was 2.7 µM (active) and the IC50 [14] was 2.77 µM (active).
